Structures are written as SMILES. Entries after “also recorded” stand apart in the source; their conditions may differ. *1 amine or outer side, *2 acyl side, *3 side chain or, on linkers, in order; H or OH if unused. Where a SMILES comes first, the peptide text is derived from it. Bridges are numbered along the chain shown (N, C = ends). Roman numbers before positions name the chains, in order. [ ]: non-standard residue; d: D form. Actinocin(9to1) = Cc1c2oc3c(C)ccc(C(=O)[*:1])c3nc-2c(C(=O)[*:2])c(N)c1=O; NMeV = CN[C@H](C(=O)O)C(C)C; Sar = CNCC(=O)O

2 compounds from patent US20090169526A1, “BMP-6 ESTROGEN RESPONSIVE ELEMENT AND METHODS OF USE THEREOF” (Wyeth, priority 2004, published 2009) can be followed below.

Experiment [1] has as its system hBMP-6 mRNA. The experiment in a line: Real-time PCR of hBMP-6 mRNA with or without Actinomycin D. Type of experiment: cell-based, human. The note with it: for hBMP-6 mRNA expression: treated with E2, p<0.05. The source says: In order to determine whether estrogen regulates hBMP-6 at the level of transcription, we conducted Real-time PCR assays measuring hBMP-6 mRNA expression in cells pulse-chase treated with or without Actinomycin D, which inhibits […] (FIG. 8).

Experiment [2] has as its system hBMP-6 mRNA. The experiment in a line: RT-PCR of hBMP-6 mRNA in engineered hMSCs (qualitative). Type of experiment: cell-based, human. To be noted: E2 10^−7 M, 24 hours. Here is the method:
H MSCs were infected with 100 pfu/cell adeno-LacZ, adeno-ER-α or adeno-ER-β.
RNA was isolated utilizing the TRIzol Reagent (Life Technologies, USA), according to manufacturer's protocol. RT-PCR was performed as described previously (Zhou et al., 2001). Forward and reverse primers for human ERα were: 5′-[…]-3′ (SEQ ID NO:6) and 5′-[…]-3′ (SEQ ID NO:7), respectively, and were designed according to the human ERα sequence (Green et al., 1986). Forward and reverse primers for human ERβ were: 5′-[…]-3′ (SEQ ID NO:8), and 5′-[…]-3′ (SEQ ID NO:9), respectively, designed according to human ERβ sequence (Moore et al., 1998). Primers for the hBMP-6 (458 bp) (Rickard et al., 1998), and internal control RPL19 (190 bp) (Orly et al., 1994) sequences were as described previously.
PCR conditions used for hERα and hERβ amplification were as follows: 30 cycles at 94° C. for 1 minute, 60° C. for 1 minute and 72° C. for 2 minute. Conditions used for hBMP-6 reverse transcription and PCR amplification were: incubation with RT, followed by 30 cycles of 94° C. for 1 minute, 55° C. for 1 minute and 72° C. for 2 minute in an MJ MiniCycler (MJ Research, USA). RT-PCR products of hBMP-6 were cloned into pGEM-T Easy vector (A1360, Promega), which following sequencing confirmed that the RT-PCR product was the hBMP-6 sequence.

Another experiment relates to hBMP-6 promoter. The experiment in a line: hBMP-6 promoter-Luc reporter in C3H10T1/2 cells. It is filed as cell-based, mouse. To be noted: 10^−8 M E2, 24 hours.
For experiment [3], the system named is hBMP-6 mRNA. The experiment in a line: Real Time RT-PCR of hBMP-6 mRNA in engineered hMSCs. Type of experiment: cell-based, human. The note with it: 10^−7 M E2, 24 hours. The method, then:
(§1) hMSCs were infected in vitro at 80% confluence with Ad5-CMV-ERα, Ad5-CMV-ERβ and Ad5-CMV-LacZ at 100 pfu/cell, for 1 hour in serum-free DMEM after which DMEM supplemented with 10% FCS was added, as previously described (Bodine et al., 1997 and 1999). Efficiency of infection was estimated via β-gal activity determination, utilizing the Galacto-Light Chemiluminescent Reporter Assay System Kit (Tropix of PE Biosystems, USA). […] Five experiments, each in triplicate were conducted, standard error is represented.

Experiment [4] addresses T1, ERβ (Homo sapiens, UniProt Q92731). The experiment in a line: ERE-tk-luciferase reporter in hMSCs infected with adeno-ERβ. Type of experiment: cell-based. The arrangement: expressed in transfected cells; host or cells: human mesenchymal stem cells (hMSCs), adenoviral transduction with Ad5-CMV-ERβ (long form; gift of Women Health Institute, Wyeth). To be noted: hMSCs infected with adeno-ERE-tk-luc, adeno-ERβ and adeno-LacZ; 10^−8 M E2, 24 hours; over vehicle control.

Experiment [5] concerns the target T1, ERβ. The experiment in a line: ERE-tk-Luc reporter in C3H10T1/2 cells co-transfected with ERβ. Type of experiment: cell-based. The note with it: mouse C3H10T1/2 cells co-transfected with ERβ; 10^−8 M E2, 24 hours. The arrangement: expressed in transfected cells.
The next experiment concerns estrogen receptors (Ers). To be noted: hMSCs with ERE-tk-luciferase construct and adeno-lacZ construct; five donors. Here is the method: as §1

T1 sequence (Q92731 whole entry): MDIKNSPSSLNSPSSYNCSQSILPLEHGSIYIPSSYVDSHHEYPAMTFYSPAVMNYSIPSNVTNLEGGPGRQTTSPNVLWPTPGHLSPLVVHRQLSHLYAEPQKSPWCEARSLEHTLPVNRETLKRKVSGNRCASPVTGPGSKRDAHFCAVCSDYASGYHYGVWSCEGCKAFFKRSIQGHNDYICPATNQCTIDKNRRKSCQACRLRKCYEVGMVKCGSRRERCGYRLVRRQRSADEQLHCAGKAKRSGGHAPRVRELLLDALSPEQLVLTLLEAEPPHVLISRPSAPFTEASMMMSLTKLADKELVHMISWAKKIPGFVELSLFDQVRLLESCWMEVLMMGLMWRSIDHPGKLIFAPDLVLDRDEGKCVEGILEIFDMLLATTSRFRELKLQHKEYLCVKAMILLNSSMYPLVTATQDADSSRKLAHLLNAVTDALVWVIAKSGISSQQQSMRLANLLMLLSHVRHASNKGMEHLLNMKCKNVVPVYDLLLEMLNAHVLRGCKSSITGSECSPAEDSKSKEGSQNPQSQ

Turning to `Cc1c2oc3c(C)ccc(C(=O)N[C@@H]4C(=O)N[C@H](C(C)C)C(=O)N5CCC[C@H]5C(=O)N(C)CC(=O)N(C)[C@@H](C(C)C)C(=O)O[C@@H]4C)c3nc-2c(C(=O)N[C@@H]2C(=O)N[C@H](C(C)C)C(=O)N3CCC[C@H]3C(=O)N(C)CC(=O)N(C)[C@@H](C(C)C)C(=O)O[C@@H]2C)c(N)c1=O` [Actinomycin D] (I: T[dV]P[Sar][NMeV] / II: T[dV]P[Sar][NMeV]; ester I:1-I:C, II:1-II:C; linker I:N-II:N via Actinocin(9to1)), the “effect of Actinomycin D on up-regulation of hBMP-6 mRNA by E2” value in the experiment on hBMP-6 mRNA [1] (hMSCs engineered with ERα or ERβ, pulse-chase treated) is “no statistical difference; also recorded: does not block”.
`C[C@]12CC[C@@H]3c4ccc(O)cc4CC[C@H]3[C@@H]1CC[C@@H]2O` [E2, 17β-estradiol]: the figures for the “hBMP-6 mRNA detection by RT-PCR” value in the experiment on hBMP-6 mRNA [2] (hMSCs transduced with adeno-ERα 100 pfu/cell), in the experiment with hBMP-6 mRNA [2] (hMSCs transduced with adeno-ERβ 100 pfu/cell) and in the experiment with hBMP-6 mRNA [2] (hMSCs transduced with adeno-LacZ 100 pfu/cell) were “qualitatively detectable levels”, “qualitatively detectable levels” and “did not”, respectively. Besides, the “hBMP-6 promoter-Luc luminescence” value with hBMP-6 promoter (mouse C3H10T1/2 cells co-transfected with ERα) and in the experiment with hBMP-6 promoter (mouse C3H10T1/2 cells co-transfected with ERβ) was “did not result in enhanced luminescence over background levels” in each case. In addition, the “increase in hBMP-6 mRNA expression” value with hBMP-6 mRNA [3] (hMSCs infected with Adeno-ERα 100 pfu/cell) was 3.2 fold; with hBMP-6 mRNA [3] (hMSCs infected with Adeno-ERβ 100 pfu/cell), 2.0 fold. Further, the “stimulation of hBMP-6 mRNA expression” value with hBMP-6 mRNA [3] (hMSCs infected with Adeno-LacZ) was “not”. Moreover, the “increase in luciferase activity” value at ERβ [4] is reported as 6 fold. Further, the ERE-tk-Luc luminescence result on ERβ [5] is reported as “significant luminescence”. The “luciferase activity following E2 treatment” value in the experiment with estrogen receptors (Ers) is “failed to produce luciferase activity”. Moreover, the “hBMP-6 mRNA expression” value in the experiment with hBMP-6 mRNA [1] (cells transfected with ERα) and in the experiment on hBMP-6 mRNA [1] (cells transfected with ERβ) was “significantly increased” each time.
